Measured values taken from patent publication US10548906B2, “Methods of promoting hepatic regeneration” (Intercept Pharmaceuticals, Inc., priority 2015, dated 2020).

Columns and labels:
Fxr = test: qRT-PCR of proliferation-, Fxr- and bile acid homeostasis-related genes in liver and ileum of rBDL rats (Example 6); format: in vivo, rat
Protocol: Transcriptional analysis was performed [Olthof 2015]. Liver samples were homogenized with a MagNA Lyser and total RNA was extracted with the High Pure RNA Tissue Kit (both from Roche Applied Sciences, Penzberg, Germany). One μg of RNA was reverse transcribed to cDNA using the SensiFAST cDNA Synthesis Kit (Bioline, London, UK) according to manufacturer's instructions. Quantitative reverse transcriptase polymerase chain reaction was performed on a LightCycler 480 (Roche, Basel, Switzerland) using SensiFAST SYBR No-ROX mix (Bioline). Fluorescence data was processed and analyzed and normalized to hypoxanthine-guanine phosphoribosyltransferase (Hprt) for ileum samples, and the geometric mean of ubiquitin C (Ubc) and beta-2-microglobulin (B2m) for liver samples. […] Primers were designed using NCBI Primer Blast (http://www.ncbi.nlm.nih.gov/tools/primer-blast/) to span an intron or exon-exon junction and prevent amplification of residual genomic DNA (Table 2). Melting curve analysis and agarose gel electrophoresis were used to validate primer specificity.

Wistar rats [1] = test: Liver growth in cholestatic (rBDL) rats prior to partial hepatectomy (Example 6); format: in vivo, rat; conditions: prior to PHx
Text: After the acclimatization period, the rats either continued on a regular chow diet or were switched to a methionine and choline-deficient (MCD) diet (Harlan Teklad, Madison, Wis.) for 3 weeks to induce moderate hepatic steatosis [Heger 2011a]. At the start of the second diet week, the rats either underwent sham surgery or were subjected to reversible bile duct ligation (rBDL). For rBDL, the extrahepatic bile duct was cannulated with a polyethylene catheter (length=±1.5 cm, inner diameter=0.4 mm, outer diameter=0.9 mm, Braun, Melsungen, Germany) connected to Silastic Tubing with a closed distal tip (length=±7.5 cm, inner diameter=0.8 mm, outer diameter=1.4 mm, Dow Corning, Midland, Mich.) [Kloek 2008]. Sham-operated animals underwent abdominal surgery, including bile duct mobilization, without inducing a biliary obstruction. Groups of rBDL rats were left untreated or received a daily oral gavage of the FXR agonist obeticholic acid (OCA, 10 mg/kg in 0.5% methylcellulose, 1.5 mL per 300 g body weight) between 7:30 and 9:00 AM.
Seven days after BDL or sham operation, all rats were subjected to 70% PHx [DeGraaf 2011]. […]
At baseline (i.e., directly before PHx) and one to five days after PHx, animals were euthanized under isoflurane anesthesia by exsanguination. […] Liver regrowth was calculated from the regenerated liver mass, and was expressed as percentage of total liver mass prior to PHx. The projected remnant liver mass was calculated using the weight of the resected liver segments, which represent 70% of the total liver mass. Dry liver weights were measured to correct for hepatic water content [Kloek 2010a].
After formalin fixation, liver specimens were dehydrated, paraffin-embedded, and stained with hematoxylin and eosin (H&E), the collagen type I and III stain picrosirius red, or the proliferation marker Ki67 [Marsman 2013]. Semi-quantitative analysis of H&E- and picrosirius red-stained liver histology was performed by an experienced hepatopathologist (JV) blinded to the experimental groups using a scoring system detailed in Table 1. […]

[2] = test system: New Zealand White rabbits; test: Hepatobiliary scintigraphy, 99mTc-mebrofenin uptake after PVE (Example 5); format: in vivo, rabbit
Protocol: Liver function was assessed using hepatobiliary scintigraphy (HBS) with ^99mTc-labeled (2,4,6 trimethyl-3-bromo) iminodiacetic acid (^99mTc-mebrofenin, Bridatec, GE Healthcare, Eindhoven, the Netherlands) at days −7, −1, +3 and +7. Rabbits (n=6 per treatment group) were anesthetized and positioned on an imaging table with the liver and heart positioned under a large field-of-view single photon emission computed tomography (SPECT/CT) camera (Siemens Symbia T16). Regions of interest were drawn around the left ventricle for blood pool readings, around the entire liver for total liver uptake, and around the caudal liver lobe (FIG. 10; the yellow region of interest (ROI) delineates the left ventricle, the red ROI the total liver and the pink ROI the caudal liver lobe; a marked decrease in cranial liver lobe activity and increase in caudal liver lobe activity was seen following portal vein embolization.). Per rabbit, a dose of 50 MBq ^99mTc-mebrofenin was administered via a lateral ear vein directly before the start of acquisition.
The geometric mean dataset of the anterior and posterior cameras was used for analysis. Hepatic ^99mTc-mebrofenin uptake rate was calculated as an increase of ^99mTc-mebrofenin uptake over two minutes, corrected for perfusion. Total liver uptake was represented by the total hepatic ^99mTc-mebrofenin uptake rate, and calculated as a percentage of the injected dose per minute. The fractional ^99mTc-mebrofenin uptake rate was calculated for the caudal liver lobe, based of distribution of segmental activity and was corrected for baseline measurements at t=−7 days.

Wistar rats [3] = test: Liver regrowth after 70% partial hepatectomy in post-cholestatic rats (Example 6); format: in vivo
Text: Seven days after BDL or sham operation, all rats were subjected to 70% PHx [DeGraaf 2011]. In all rBDL rats, intestinal bile flow was restored directly prior to PHx by removing the closed cannula tip and inserting the cannula into the duodenum. Animals in all treatment groups were put on regular chow after PHx. OCA treatment was continued after PHx until sacrifice. As depicted in Scheme 1, the study consisted of five experimental groups (n=4-6 animals per group per time point): control (sham), steatosis (MCD), cholestasis (rBDL), combined steatosis and cholestasis (rBDL+MCD), and cholestasis+OCA (rBDL+OCA).
At baseline (i.e., directly before PHx) and one to five days after PHx, animals were euthanized under isoflurane anesthesia by exsanguination. Blood samples were collected from the caval vein in heparin-anticoagulated vacutainers (BD, Franklin Lakes, N.J.) and centrifuged for 10 min (3000×g, 4° C.). In rBDL animals sacrificed at baseline, bile was aspirated with a syringe from the dilated extrahepatic bile duct, weighed, and stored at −80° C. The liver and ileum were excised, weighed, loafed, and either fixed in a 10% (vol/vol) neutralized formalin solution (J. T. Baker, Center Valley, Pa.), snap-frozen in liquid nitrogen and stored at −80° C., or collected in RNAlater (Qiagen, Venlo, the Netherlands) and stored at −20° C. Liver regrowth was calculated from the regenerated liver mass, and was expressed as percentage of total liver mass prior to PHx. The projected remnant liver mass was calculated using the weight of the resected liver segments, which represent 70% of the total liver mass. Dry liver weights were measured to correct for hepatic water content [Kloek 2010a].
After formalin fixation, liver specimens were dehydrated, paraffin-embedded, and stained with hematoxylin and eosin (H&E), the collagen type I and III stain picrosirius red, or the proliferation marker Ki67 [Marsman 2013]. Semi-quantitative analysis of H&E- and picrosirius red-stained liver histology was performed by an experienced hepatopathologist (JV) blinded to the experimental groups using a scoring system detailed in Table 1. Ki67-positive hepatocyte nuclei were manually counted by two observers (RFG and PBO) in four randomly-selected microscopic fields at 200× magnification.

mice = conditions: 2 years, 25 mg/kg; cited from earlier work
[4] = prior to PHx, vs untreated rBDL

**Q.** With `CC[C@H]1[C@@H](O)[C@@H]2[C@H](CC[C@]3(C)[C@@H]([C@H](C)CCC(=O)O)CC[C@@H]23)[C@@]2(C)CC[C@@H](O)C[C@@H]12` [Compound 1, 3α,7α-dihydroxy-6α-ethyl-5β-cholanic acid] as the compound, how does the “hepatic Bsep expression, upregulation” value (Fxr; baseline) read?
**A.** Its value is ~8 fold.

**Q.** And the “hepatic Mrp4 expression” value (Fxr; baseline)?
**A.** Its value is “upregulated”.

**Q.** What about the “hepatic Ntcp expression” value (Fxr; baseline) of the same compound?
**A.** The value was “mildly upregulated”.

**Q.** And the “hepatic Ostβ expression” value (Fxr; baseline)?
**A.** Its value is “upregulated”.

**Q.** And the “hepatocyte Cyp7a1 mRNA level” value (Fxr; baseline)?
**A.** The value was “did not alter”.

**Q.** And the “hepatocyte Shp mRNA level” value (Fxr; baseline)?
**A.** The value was “did not alter”.

**Q.** What about the “hepatic Mrp3 expression” value (Fxr; baseline, vs untreated rBDL) of the same compound?
**A.** The value was “more robust induction”.

**Q.** What about the “liver Fxr mRNA” value (Fxr; day 1 post-PHx) of the same compound?
**A.** The value was “slight decrease”.

**Q.** And the “hepatic Foxm1 expression” value (Fxr; during liver regeneration after PHx)?
**A.** Its value is “did not change”.

**Q.** What about the “hepatic Shp transcript levels relative to untreated rBDL and control rats” value (Fxr; first two days after PHx) of the same compound?
**A.** Its value is “high transcript levels”.

**Q.** And the “hepatic Fgfr4 transcript level” value (Fxr; prior to / on the day of PHx, listed as OCA)?
**A.** The value was “markedly downregulated”.

**Q.** And the “hepatic Stat3 expression” value (Fxr; prior to PHx)?
**A.** The value was “considerably upregulated”.

**Q.** What about the “ileal Fxr expression” value (Fxr; prior to PHx) of the same compound?
**A.** Its value is “minor downregulation”.

**Q.** What about the “ileal Shp expression” value (Fxr; prior to PHx) of the same compound?
**A.** Its value is “marked upregulation”.

**Q.** What about the “ileal Fgf15 transcription, upregulation” value (Fxr; prior to PHx, rBDL rats) of the same compound?
**A.** Its value is ~20 fold.

**Q.** What about the “hepatic expression of Foxm1” value (Fxr; [4]) of the same compound?
**A.** The value was “comparable”.

**Q.** And the “hepatic expression of Fxr” value (Fxr; [4])?
**A.** Its value is “comparable”.

**Q.** And the “hepatic expression of Ccnd1 (CyclinD1)” value (Fxr; prior to PHx, vs untreated rBDL or non-cholestatic animals)?
**A.** The value was “more pronounced”.

**Q.** What about the “hepatic Fgfr4 expression” value (Fxr; regrowth phase after PHx) of the same compound?
**A.** The value was “remained low”.

**Q.** What about the “liver mass corrected for hepatic water content (dry weight)” value (Wistar rats [1]; 7 days rBDL) of the same compound?
**A.** The value was “increased liver mass”.

**Q.** What about the “gross liver mass vs control group” value (Wistar rats [1]; 7 days rBDL, 10 mg/kg daily oral) of the same compound?
**A.** Its value is “higher”.

**Q.** What about the “hepatocyte proliferation measured by Ki67 staining” value (Wistar rats [1]; vs untreated rBDL or non-cholestatic animals) of the same compound?
**A.** The value was “more pronounced”.

**Q.** And the “increase in contribution of caudal liver lobe (CLF share) to total liver mebrofenin uptake” value ([2]; 3 days after PVE)?
**A.** The value was 44.5±5.4%.

**Q.** And the “increase in caudal liver function relative to vehicle” value ([2]; day +3)?
**A.** The value was 1.2 fold.

**Q.** And the “total liver uptake of mebrofenin” value ([2]; days −1, +3, +7, N=6)?
**A.** Its value is “remained stable in both groups”.

**Q.** And the “dry weight of the remnant liver” value (Wistar rats [3]; at the time of PHx, vs other two groups)?
**A.** The value was “higher”.

**Q.** And the “number of Ki67+ hepatocytes” value (Wistar rats [3]; day one after PHx)?
**A.** Its value is “highest”.

**Q.** And the mortality (Wistar rats [3]; regeneration phase)?
**A.** The mortality was “no mortality”.

**Q.** What about the “liver regrowth after 70% PHx” value (Wistar rats [3]; vs untreated rBDL and control rats) of the same compound?
**A.** The value was “stalled”.

**Q.** And the malignant transformation (mice)?
**A.** The malignant transformation was “does not lead to malignant transformation”.
